In patent publication US12594276B2, “Inhibitors of human immunodeficiency virus replication” (ViiV Healthcare UK (No.5) Limited, priority 2024, dated 2026):
Where two headings read alike, the source gives them in different places.

What was measured:
[1] = tested on: recombinant NL4-3 virus (nef section replaced with Renilla luciferase gene) in MT-2 cells; assay: HIV cell culture assay (antiviral activity, luciferase readout); format: cell-based; conditions: Renilla, NL43, MT-2 cells infected for 4-5 days with recombinant NL4-3 Renilla luciferase virus
Outline: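 Compound activity was measured as reduction of luciferase in MT-2 cells infected for 4-5 days with serially diluted compound present. EC50 values were calculated with the median effect equation.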

[2] = Compound cytotoxicity, XTT-based colorimetric assay; format: cell-based; conditions: human
Outline: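 CC50 derived from XTT colorimetric signal measured on day 4 in MT2 cells that were not infected. All other steps followed the antiviral assay protocol.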

[3] = uninfected MT2 cells, day 4, XTT, read-out: CC50

Row | SMILES | EC50 [1] | CC50 at 4 days [2, 3] | CC50 at 4 days [2]
1 | COCCOCCn1nc(NS(C)(=O)=O)c2c(Cl)ccc(-n3c([C@H](Cc4cc(F)cc(F)c4)NC(=O)Cn4nc(C(F)F)c5c4C(F)(F)[C@@H]4C[C@H]54)nc4nc(C5CCC(F)(F)CC5)ccc4c3=O)c21 (atropisomer, axis not shown; (P)) [Example 241, N-[(1S)-1-[(3P)-3-{4-chloro-3-methanesulfonamido-1-[2-(2-methoxyethoxy)ethyl]-1H-indazol-7-yl}-7-(4,4-difluorocyclohexyl)-4-oxo-3H,4H-pyrido[2,3-d]pyrimidin-2-yl]-2-(3,5-difluorophenyl)ethyl]-2-[(2S,4R)-9-(difluoromethyl)-5,5-difluoro-7,8-diazatricyclo[4.3.0.0^2,^4]nona-1(6),8-dien-7-yl]acetamide] | 0.018 nM | > 50 nM | 
2 | Cc1cc(C2(F)CCC(F)(F)CC2)nc2nc([C@H](Cc3cc(F)cc(F)c3)NC(=O)Cn3nc(C4CC4)c4c3C[C@@H]3C[C@H]43)n(-c3ccc(Cl)c4c(NS(C)(=O)=O)nn(CCN5C[C@@H](C)O[C@@H](C)C5)c34)c(=O)c12 (atropisomer, axis not shown; (P)) [Example 503, N-[(1S)-1-[(3P)-3-(4-chloro-1-{2-[(2R,6S)-2,6-dimethylmorpholin-4-yl]ethyl}-3-methanesulfonamido-1H-indazol-7-yl)-5-methyl-4-oxo-7-(1,4,4-trifluorocyclohexyl)-3H,4H-pyrido[2,3-d]pyrimidin-2-yl]-2-(3,5-difluorophenyl)ethyl]-2-[(2S,4S)-9-cyclopropyl-7,8-diazatricyclo[4.3.0.0^2,4]nona-1(6),8-dien-7-yl]acetamide] | 0.008 nM | > 20 nM | 
3 | CS(=O)(=O)Nc1nn(CCN2C[C@H](F)C[C@H](F)C2)c2c(-n3c([C@H](Cc4cc(F)cc(F)c4)NC(=O)Cn4nc(C(F)F)c5c4C(F)(F)[C@@H]4C[C@H]54)nc4nc(C5CCC(F)(F)CC5)cc(C(F)F)c4c3=O)ccc(Cl)c12 (atropisomer, axis not shown; (P)) [Example 291, N-[(1S)-1-[(3P)-3-(4-chloro-1-{2-[(3R,5S)-3,5-difluoropiperidin-1-yl]ethyl}-3-methanesulfonamido-1H-indazol-7-yl)-7-(4,4-difluorocyclohexyl)-5-(difluoromethyl)-4-oxo-3H,4H-pyrido[2,3-d]pyrimidin-2-yl]-2-(3,5-difluorophenyl)ethyl]-2-[(2S,4R)-9-(difluoromethyl)-5,5-difluoro-7,8-diazatricyclo[4.3.0.0^2,^4]nona-1(6),8-dien-7-yl]acetamide] | 0.012 nM | > 50 nM | 
4 | CS(=O)(=O)Nc1nn(CCN2C[C@H]3CC[C@@H](C2)O3)c2c(-n3c([C@H](Cc4cc(F)cc(F)c4)NC(=O)Cn4nc(C5CC5)c5c4C[C@@H]4C[C@H]54)nc4nc(C5CCC(F)(F)CC5)cc(C5CC5)c4c3=O)ccc(Cl)c12 (atropisomer, axis not shown; (P)) [Example 325, N-[(1S)-1-[(3P)-3-(4-chloro-3-methanesulfonamido-1-{2-[(1R,5S)-8-oxa-3-azabicyclo[3.2.1]octan-3-yl]ethyl}-1H-indazol-7-yl)-5-cyclopropyl-7-(4,4-difluorocyclohexyl)-4-oxo-3H,4H-pyrido[2,3-d]pyrimidin-2-yl]-2-(3,5-difluorophenyl)ethyl]-2-[(2S,4S)-9-cyclopropyl-7,8-diazatricyclo[4.3.0.0^2,^4]nona-1(6),8-dien-7-yl]acetamide] | 0.009 nM | > 50 nM | 
5 | Cc1cc(C2(C)CCC(F)(F)CC2)nc2nc([C@H](Cc3cc(F)cc(F)c3)NC(=O)Cn3nc(C(F)F)c4c3C(F)(F)[C@@H]3C[C@H]43)n(-c3ccc(Cl)c4c(NS(C)(=O)=O)nn(CCN5C[C@@H](C)O[C@@H](C)C5)c34)c(=O)c12 (atropisomer, axis not shown; (P)) [Example 505, N-[(1S)-1-[(3P)-3-(4-chloro-1-{2-[(2R,6S)-2,6-dimethylmorpholin-4-yl]ethyl}-3-methanesulfonamido-1H-indazol-7-yl)-7-(4,4-difluoro-1-methylcyclohexyl)-5-methyl-4-oxo-3H,4H-pyrido[2,3-d]pyrimidin-2-yl]-2-(3,5-difluorophenyl)ethyl]-2-[(2S,4R)-9-(difluoromethyl)-5,5-difluoro-7,8-diazatricyclo[4.3.0.0^2,^4]nona-1(6),8-dien-7-yl]acetamide] | 0.013 nM | > 20 nM | 
6 | Cc1cc(C2(F)CCC(F)(F)CC2)nc2nc([C@H](Cc3cc(F)cc(F)c3)NC(=O)Cn3nc(C4CC4)c4c3C[C@@H]3C[C@H]43)n(-c3ccc(Cl)c4c(NS(C)(=O)=O)nn(CCN5CCCC5=O)c34)c(=O)c12 (relative stereo) [Example 738, N-[(1S)-1-[(3P)-3-{4-chloro-3-methanesulfonamido-1-[2-(2-oxopyrrolidin-1-yl)ethyl]-1H-indazol-7-yl}-5-methyl-4-oxo-7-(1,4,4-trifluorocyclohexyl)-3H,4H-pyrido[2,3-d]pyrimidin-2-yl]-2-(3,5-difluorophenyl)ethyl]-2-[(2R*,4R*)-9-cyclopropyl-7,8-diazatricyclo[4.3.0.0^2,^4]nona-1(6),8-dien-7-yl]acetamide] | 0.043 nM | > 20 nM | 
7 | Cc1cc(C2(CF)CCC(F)(F)CC2)nc2nc([C@H](Cc3cc(F)cc(F)c3)NC(=O)Cn3nc(C(F)F)c4c3C(F)(F)[C@@H]3C[C@H]43)n(-c3ccc(Cl)c4c(NS(C)(=O)=O)nn(CCN5C[C@H](F)C[C@H](F)C5)c34)c(=O)c12 (atropisomer, axis not shown; (P)) [Example 556, N-[(1S)-1-[(3P)-3-(4-chloro-1-{2-[(3R,5S)-3,5-difluoropiperidin-1-yl]ethyl}-3-methanesulfonamido-1H-indazol-7-yl)-7-[4,4-difluoro-1-(fluoromethyl)cyclohexyl]-5-methyl-4-oxo-3H,4H-pyrido[2,3-d]pyrimidin-2-yl]-2-(3,5-difluorophenyl)ethyl]-2-[(2S,4R)-9-(difluoromethyl)-5,5-difluoro-7,8-diazatricyclo[4.3.0.0^2,^4]nona-1(6),8-dien-7-yl]acetamide] | 0.014 nM | > 20 nM | 
8 | COCCNc1cc(C2CCC(F)(F)CC2)nc2nc([C@H](Cc3cc(F)cc(F)c3)NC(=O)Cn3nc(C(F)F)c4c3C(F)(F)[C@@H]3C[C@H]43)n(-c3ccc(Cl)c4c(NS(C)(=O)=O)nn(CCN5C[C@H]6C[C@@H](C5)O6)c34)c(=O)c12 (atropisomer, axis not shown; (P)) [Example 419, N-[(1S)-1-[(3P)-3-(4-chloro-3-methanesulfonamido-1-{2-[(1R,5S)-6-oxa-3-azabicyclo[3.1.1]heptan-3-yl]ethyl}-1H-indazol-7-yl)-7-(4,4-difluorocyclohexyl)-5-[(2-methoxyethyl)amino]-4-oxo-3H,4H-pyrido[2,3-d]pyrimidin-2-yl]-2-(3,5-difluorophenyl)ethyl]-2-[(2S,4R)-9-(difluoromethyl)-5,5-difluoro-7,8-diazatricyclo[4.3.0.0^2,^4]nona-1(6),8-dien-7-yl]acetamide] | 0.011 nM |  | > 20 nM
